# Active and inactive are the calls of the source.
# Columns and labels:
# [1] = target: Trypsin (Sus scrofa, UniProt P00761); test: trypsin protease activity blockade – biochemical, quenched peptide fluorescence, cherry-pick, selectivity assay for Rce1 protease inhibitor project, dose response (AID 488789)
# [2] = target: T1, Coagulation factor XII (Homo sapiens, UniProt P00748); assay type: functional;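 also: activated factor XIIa alpha cleaving a fluorogenic AMC peptide substrate; inhibitor potency from loss of enzyme activity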
# T1 sequence (P00748 whole entry): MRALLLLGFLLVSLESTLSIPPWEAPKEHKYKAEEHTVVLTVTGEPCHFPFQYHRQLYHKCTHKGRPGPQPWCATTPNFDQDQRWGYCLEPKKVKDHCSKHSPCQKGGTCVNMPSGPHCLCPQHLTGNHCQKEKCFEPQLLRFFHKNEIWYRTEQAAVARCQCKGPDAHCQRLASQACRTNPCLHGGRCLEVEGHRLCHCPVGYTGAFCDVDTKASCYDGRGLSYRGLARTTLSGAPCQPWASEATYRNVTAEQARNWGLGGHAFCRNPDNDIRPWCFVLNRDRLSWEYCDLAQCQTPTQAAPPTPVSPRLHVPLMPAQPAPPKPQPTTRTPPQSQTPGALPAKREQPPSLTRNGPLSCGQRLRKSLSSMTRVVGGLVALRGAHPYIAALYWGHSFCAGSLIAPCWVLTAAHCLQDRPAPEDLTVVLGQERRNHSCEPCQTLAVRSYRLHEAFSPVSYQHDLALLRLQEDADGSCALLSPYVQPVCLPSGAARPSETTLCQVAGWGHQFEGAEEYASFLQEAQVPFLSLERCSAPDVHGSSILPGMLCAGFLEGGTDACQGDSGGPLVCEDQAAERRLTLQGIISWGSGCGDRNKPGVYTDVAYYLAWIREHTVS
# [3] = test system: HEK293; test: inhibition of NOD1-driven NF-kB reporter – cell-based, luminescence, uHTS, primary screen (AID 1578); assay type: functional; conditions: Homo sapiens
# [4] = test system: HEK293; test: cells; assay type: functional, cell-based; conditions: Homo sapiens
# [5] = test system: HEK293; test: cells; assay type: functional, cell-based; conditions: Homo sapiens; remark: listed apart in the source
# [6] = target: Nucleotide-binding oligomerization domain-containing protein 2 (Homo sapiens, UniProt Q9HC29); test: inhibition of NOD2-driven NF-kB reporter – cell-based, luminescence, uHTS, HEK293 (AID 1566); assay type: functional
# Chain of Nucleotide-binding oligomerization domain-containing protein 2 (Q9HC29 whole entry, the tested form may be a part): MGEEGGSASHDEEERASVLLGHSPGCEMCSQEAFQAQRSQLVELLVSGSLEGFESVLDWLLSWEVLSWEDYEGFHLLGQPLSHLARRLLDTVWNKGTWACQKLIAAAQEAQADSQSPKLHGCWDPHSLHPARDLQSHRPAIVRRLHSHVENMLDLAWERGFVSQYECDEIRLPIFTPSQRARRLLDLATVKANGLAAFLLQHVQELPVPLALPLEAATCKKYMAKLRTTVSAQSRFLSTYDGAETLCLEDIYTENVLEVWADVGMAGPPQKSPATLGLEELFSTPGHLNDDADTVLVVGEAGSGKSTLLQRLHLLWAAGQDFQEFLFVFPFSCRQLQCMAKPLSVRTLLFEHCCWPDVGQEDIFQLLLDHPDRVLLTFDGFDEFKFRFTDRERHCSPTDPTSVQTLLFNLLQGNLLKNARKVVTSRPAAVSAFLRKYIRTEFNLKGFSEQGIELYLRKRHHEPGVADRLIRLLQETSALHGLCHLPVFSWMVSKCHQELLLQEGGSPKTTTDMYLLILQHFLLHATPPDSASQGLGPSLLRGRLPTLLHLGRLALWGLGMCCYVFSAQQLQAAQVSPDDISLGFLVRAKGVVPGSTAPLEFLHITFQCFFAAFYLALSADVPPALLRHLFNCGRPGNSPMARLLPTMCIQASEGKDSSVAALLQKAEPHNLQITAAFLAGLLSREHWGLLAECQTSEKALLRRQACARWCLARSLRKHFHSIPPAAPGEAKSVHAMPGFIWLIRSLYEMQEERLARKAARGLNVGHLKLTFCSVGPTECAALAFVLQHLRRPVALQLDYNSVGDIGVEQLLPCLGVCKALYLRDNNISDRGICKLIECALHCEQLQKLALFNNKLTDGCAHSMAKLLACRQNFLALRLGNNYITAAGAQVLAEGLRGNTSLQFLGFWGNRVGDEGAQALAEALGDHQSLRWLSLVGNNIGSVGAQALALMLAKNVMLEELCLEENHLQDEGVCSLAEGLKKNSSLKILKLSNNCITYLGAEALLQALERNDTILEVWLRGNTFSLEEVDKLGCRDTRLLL
# [7] = test system: HEK293; test: NOD2 signaling inhibitors in MDP-stimulated cells, cell-based, uHTS, luminescence (AID 2001); assay type: functional; conditions: Homo sapiens
# [8] = test system: HEK293; test: cells; assay type: functional, cell-based; conditions: Homo sapiens; remark: listed apart in the source
# [9] = test system: BJ; test: BJ-TERT fibroblast viability loss – cell-based, RAS-independent, luminescence, dose response (AID 1933); assay type: functional; conditions: Homo sapiens
# [10] = test system: BJ; test: cells; assay type: functional, cell-based; conditions: Homo sapiens
# [11] = test system: BJ; test: BJ-TERT-LT-ST fibroblast viability loss – cell-based, RAS-independent, luminescence, dose response (AID 1935); assay type: functional; conditions: Homo sapiens;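 also: BJ fibroblasts immortalized with TERT plus LT and ST oncogenes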
# [12] = DRD fibroblast viability loss – cell-based, non-viral oncogenic, luminescence, dose response (AID 1934); assay type: functional; conditions: Homo sapiens
# [13] = test system: INS1; test: INS-1E survival protection against cytokine death – cell-based, luminescence, retest, dose response (AID 449756); assay type: functional; conditions: Rattus norvegicus;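 also: cell death triggered by IL-1 beta plus TNF-alpha plus IFN-gamma mixture; protective hits raise ATP signal compared with cytokine alone wells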
# [14] = target: DNA dC->dU-editing enzyme APOBEC-3G (Homo sapiens, UniProt Q9HC16); test: Dose Response confirmation of small molecule APOBEC3G DNA Deaminase Inhibitors via a fluorescence-based single-stranded DNA deaminase assay. [Related pubchem assays (depositor defined):AID493012, AID493028]; assay type: functional
# Chain of DNA dC->dU-editing enzyme APOBEC-3G (Q9HC16 whole entry): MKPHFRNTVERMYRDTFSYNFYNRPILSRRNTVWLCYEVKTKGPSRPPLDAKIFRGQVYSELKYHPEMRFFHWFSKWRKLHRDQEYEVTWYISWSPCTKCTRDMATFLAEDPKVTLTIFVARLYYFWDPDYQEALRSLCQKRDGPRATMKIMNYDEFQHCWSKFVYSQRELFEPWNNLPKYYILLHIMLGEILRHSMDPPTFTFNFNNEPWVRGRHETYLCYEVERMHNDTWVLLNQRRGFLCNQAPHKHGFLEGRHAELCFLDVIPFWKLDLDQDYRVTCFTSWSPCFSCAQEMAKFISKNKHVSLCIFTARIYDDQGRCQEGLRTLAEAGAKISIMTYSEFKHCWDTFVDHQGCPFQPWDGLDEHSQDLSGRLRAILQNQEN
# [15] = target: T2, Aminopeptidase N (Plasmodium falciparum FcB1/Columbia, UniProt O96935); test: malaria alanyl aminopeptidase activity blockers – biochemical, fluorogenic H-Leu-NHMec substrate, 1536-well (AID 1445); design: species or system Plasmodium falciparum 3D7, 3D7
# T2 sequence (O96935 whole entry): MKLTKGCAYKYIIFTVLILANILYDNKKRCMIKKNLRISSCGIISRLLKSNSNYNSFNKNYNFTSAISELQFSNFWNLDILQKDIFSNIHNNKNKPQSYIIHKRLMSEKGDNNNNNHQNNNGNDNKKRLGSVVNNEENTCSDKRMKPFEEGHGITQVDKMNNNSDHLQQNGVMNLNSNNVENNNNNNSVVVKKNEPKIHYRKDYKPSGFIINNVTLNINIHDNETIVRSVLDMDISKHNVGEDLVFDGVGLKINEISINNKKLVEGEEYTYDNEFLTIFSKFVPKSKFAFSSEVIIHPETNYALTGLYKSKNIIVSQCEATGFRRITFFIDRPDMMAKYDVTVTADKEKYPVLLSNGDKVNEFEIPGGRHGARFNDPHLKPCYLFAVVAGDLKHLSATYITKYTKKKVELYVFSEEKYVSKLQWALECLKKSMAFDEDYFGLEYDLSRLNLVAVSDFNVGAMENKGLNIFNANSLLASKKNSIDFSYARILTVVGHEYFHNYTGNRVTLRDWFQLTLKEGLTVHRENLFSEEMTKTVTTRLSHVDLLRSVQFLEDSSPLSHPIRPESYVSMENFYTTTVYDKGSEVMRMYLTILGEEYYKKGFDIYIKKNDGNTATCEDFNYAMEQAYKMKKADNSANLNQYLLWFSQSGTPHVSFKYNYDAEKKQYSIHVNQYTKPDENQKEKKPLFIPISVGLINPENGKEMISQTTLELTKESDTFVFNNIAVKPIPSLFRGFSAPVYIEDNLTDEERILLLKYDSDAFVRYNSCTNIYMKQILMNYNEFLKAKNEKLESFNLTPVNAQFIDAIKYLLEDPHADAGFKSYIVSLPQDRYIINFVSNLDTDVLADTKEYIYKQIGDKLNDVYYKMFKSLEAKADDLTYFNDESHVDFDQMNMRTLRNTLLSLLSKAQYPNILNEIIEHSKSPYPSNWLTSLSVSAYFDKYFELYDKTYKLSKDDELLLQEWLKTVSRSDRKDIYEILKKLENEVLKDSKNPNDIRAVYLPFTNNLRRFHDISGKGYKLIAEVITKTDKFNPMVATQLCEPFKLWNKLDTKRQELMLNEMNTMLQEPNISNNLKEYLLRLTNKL
# [16] = target: Tumor necrosis factor (Homo sapiens, UniProt P01375); test: analog potency on TNFa NF-kB signaling – cell-based, revised, SAR follow-up (AID 2337); assay type: functional
# Chain of Tumor necrosis factor (P01375 whole entry, the tested form may be a part): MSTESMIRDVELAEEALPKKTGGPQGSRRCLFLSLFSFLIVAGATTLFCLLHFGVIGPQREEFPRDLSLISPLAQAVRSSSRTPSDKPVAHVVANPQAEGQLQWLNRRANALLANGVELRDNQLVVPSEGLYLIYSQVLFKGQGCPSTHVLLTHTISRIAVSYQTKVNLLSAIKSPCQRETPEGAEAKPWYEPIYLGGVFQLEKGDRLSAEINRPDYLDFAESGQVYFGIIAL
# [17] = target: T3, Nucleotide-binding oligomerization domain-containing protein 1 (Homo sapiens, UniProt Q9Y239); test: blockers of NOD1 pathway activity – revised, SAR follow-up (AID 2333); assay type: functional
# T3 sequence (Q9Y239 whole entry): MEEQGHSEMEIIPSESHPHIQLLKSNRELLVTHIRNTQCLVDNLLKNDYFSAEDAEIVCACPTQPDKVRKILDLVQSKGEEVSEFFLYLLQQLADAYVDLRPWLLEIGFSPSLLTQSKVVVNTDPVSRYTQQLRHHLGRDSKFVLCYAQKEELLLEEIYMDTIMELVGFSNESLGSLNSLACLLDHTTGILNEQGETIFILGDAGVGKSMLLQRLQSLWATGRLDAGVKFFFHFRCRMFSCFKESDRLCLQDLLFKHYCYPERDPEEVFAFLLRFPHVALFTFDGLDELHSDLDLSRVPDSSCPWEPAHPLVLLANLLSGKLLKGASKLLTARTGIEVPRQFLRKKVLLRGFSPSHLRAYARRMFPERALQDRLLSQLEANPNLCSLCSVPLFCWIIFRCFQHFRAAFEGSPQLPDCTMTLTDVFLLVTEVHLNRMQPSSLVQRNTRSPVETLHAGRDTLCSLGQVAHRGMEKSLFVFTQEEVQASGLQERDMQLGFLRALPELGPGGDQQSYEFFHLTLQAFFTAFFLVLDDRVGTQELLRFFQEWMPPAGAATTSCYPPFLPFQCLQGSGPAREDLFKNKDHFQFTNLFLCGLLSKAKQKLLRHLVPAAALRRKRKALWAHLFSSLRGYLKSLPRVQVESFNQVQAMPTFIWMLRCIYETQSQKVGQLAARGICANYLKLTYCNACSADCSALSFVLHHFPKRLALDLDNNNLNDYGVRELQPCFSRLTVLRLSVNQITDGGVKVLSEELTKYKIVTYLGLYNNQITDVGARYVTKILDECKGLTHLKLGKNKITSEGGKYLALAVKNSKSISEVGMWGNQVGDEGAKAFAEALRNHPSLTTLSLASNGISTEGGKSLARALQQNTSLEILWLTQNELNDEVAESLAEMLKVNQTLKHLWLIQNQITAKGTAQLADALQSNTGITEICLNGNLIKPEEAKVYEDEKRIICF
# [18] = HEK-293T viability loss after treatment – luminescence, T-cell screen hits, cytotoxicity control for TCR NF-kB inhibitor project, dose response (AID 489026); assay type: functional, cell-based;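 also: cells exposed to compound about 14 hours before the viability readout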
# [19] = test system: HEK293; test: cells; conditions: Homo sapiens
# [20] = Trypanosoma cruzi growth suppression in host cells – NIH3T3 host cells, beta-gal luminescence, confirmation (AID 2044); assay type: functional, cell-based;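 also: intracellular parasites grown in NIH/3T3 mouse fibroblasts as host cells; luminescent beta-galactosidase reporter signal from transgenic T. cruzi replicating inside host cells; inhibitors lower the luminescence signal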
# [21] = NIH3T3 cell viability loss – ATP luminescence, mouse fibroblasts, counter-screen, dose response (AID 2010); assay type: functional, cell-based;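 also: cells exposed to compound for about 90 hours before reading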
# [22] = target: T4, CAAX prenyl protease 2 (Saccharomyces cerevisiae S288c, UniProt Q03530); assay type: biochemical
# T4 sequence (Q03530 whole entry): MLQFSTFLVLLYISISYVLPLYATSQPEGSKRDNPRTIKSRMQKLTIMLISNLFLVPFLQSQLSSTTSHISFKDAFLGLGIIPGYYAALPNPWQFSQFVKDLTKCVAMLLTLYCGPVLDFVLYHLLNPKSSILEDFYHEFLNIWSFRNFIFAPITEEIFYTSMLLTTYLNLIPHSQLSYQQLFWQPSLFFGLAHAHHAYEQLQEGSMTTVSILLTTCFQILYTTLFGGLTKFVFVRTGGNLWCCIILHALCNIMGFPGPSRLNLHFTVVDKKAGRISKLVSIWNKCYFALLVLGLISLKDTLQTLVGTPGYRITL
# [23] = viability loss in HeLa cells – cytotoxicity control for MgcRacGAP inhibitor project, dose response (AID 624300); assay type: functional
# [24] = target: T5, Rac GTPase-activating protein 1 (Homo sapiens, UniProt Q9H0H5); test: blockers of MgcRacGAP-driven Rac1 GTP hydrolysis – biochemical, ADP Hunter fluorescence, primary and confirmatory, confirmation (AID 624330); assay type: functional
# T5 sequence (Q9H0H5 whole entry): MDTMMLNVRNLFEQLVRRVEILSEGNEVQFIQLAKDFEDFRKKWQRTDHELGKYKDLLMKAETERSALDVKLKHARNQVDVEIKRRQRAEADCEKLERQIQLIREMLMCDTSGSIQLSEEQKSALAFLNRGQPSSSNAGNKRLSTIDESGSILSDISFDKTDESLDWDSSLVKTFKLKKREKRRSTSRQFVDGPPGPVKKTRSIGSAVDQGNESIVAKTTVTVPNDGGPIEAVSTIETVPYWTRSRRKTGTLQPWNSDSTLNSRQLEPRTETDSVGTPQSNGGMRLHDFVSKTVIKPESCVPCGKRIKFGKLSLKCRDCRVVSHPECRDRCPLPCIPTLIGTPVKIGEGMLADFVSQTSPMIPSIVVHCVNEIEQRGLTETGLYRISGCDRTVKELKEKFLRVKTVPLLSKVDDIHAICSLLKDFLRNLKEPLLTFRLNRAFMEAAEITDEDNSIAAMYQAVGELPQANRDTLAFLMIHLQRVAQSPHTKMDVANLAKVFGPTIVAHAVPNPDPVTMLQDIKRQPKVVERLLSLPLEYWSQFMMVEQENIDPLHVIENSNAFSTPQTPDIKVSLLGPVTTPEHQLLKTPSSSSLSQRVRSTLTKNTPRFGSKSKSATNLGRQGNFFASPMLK
# Chain of Trypsin (P00761 whole entry): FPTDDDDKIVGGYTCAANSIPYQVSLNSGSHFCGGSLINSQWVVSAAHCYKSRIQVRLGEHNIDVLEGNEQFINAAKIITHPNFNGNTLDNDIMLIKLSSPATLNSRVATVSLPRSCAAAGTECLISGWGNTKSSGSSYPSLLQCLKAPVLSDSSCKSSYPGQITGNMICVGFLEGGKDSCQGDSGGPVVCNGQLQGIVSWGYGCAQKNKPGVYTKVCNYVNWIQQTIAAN
structure (smiles),measurement,setting,value
COCCCn1c(N)c(C(=O)NCc2ccco2)c2nc3ccccc3nc21,AC50,[1],10.3 µM (active)
C=CCn1c(SCC(=O)Nc2cccnc2Cl)nnc1-c1ccc(Cl)cc1,IC50,[2],> 50 µM (inactive)
COc1ccc(-c2c[nH]nc2-c2ccc(OCc3ccccc3F)cc2O)cc1OC,EC50,[3],9.16 µM (active)
same,IC50,[4],6.09 µM (active)
same,IC50,[5],11.7 µM (active)
same,EC50,[6],> 20 µM (inactive)
same,IC50,[7],7.5 µM (active)
same,IC50,[8],> 20 µM (inactive)
COc1cc(/C=C2\CC(C(C)(C)C)C/C(=C\c3cc(OC)c(OC)c(OC)c3)C2=O)cc(OC)c1OC (stereo not given),EC50,[3],5.25 µM (active)
same,EC50,[9],4.94 µM (active)
same,IC50,[4],4.76 µM (active)
same,EC50,[10],12 µM (inconclusive)
same,IC50,[5],18.3 µM (active)
same,EC50,[6],8.66 µM (active)
same,IC50,[7],4.98 µM (active)
same,IC50,[8],> 20 µM (inactive)
same,EC50,[11],5.18 µM (inconclusive)
same,EC50,[12],4.23 µM (active)
same,AC50,[13],5.52 µM (active)
O=C(O)c1ccc(-n2c(-c3ccc(Br)cc3)n[nH]c2=S)cc1,IC50,[14],9.1 µM (active)
CC(=O)Nc1ccc(S(=O)(=O)NCCNc2ccccc2[N+](=O)[O-])cc1,IC50,[2],> 50 µM (inactive)
Cc1ncc(CN2CCCC(C(=O)c3ccc(C(C)(C)C)cc3)C2)s1 (stereo not given),IC50,[2],> 50 µM (inactive)
COc1ccc(S(=O)(=O)NC2=NC(=O)/C(=C\c3cc(OC)c(OC)cc3[N+](=O)[O-])S2)cc1,IC50,[15],22.4 µM (active)
O=C(COc1ccc2c(-c3ccccc3)cc(=O)oc2c1)Nc1cccnc1,EC50,[3],0.75 µM (active)
same,IC50,[4],2.21 µM (active)
same,IC50,[5],18.7 µM (active)
same,EC50,[6],> 20 µM (inactive)
same,IC50,[7],10.8 µM (inactive)
same,IC50,[8],> 20 µM (inactive)
same,IC50,[16],4.59 µM (active)
same,IC50,[17],3.17 µM (active)
same,IC50,[18],> 80 µM (inactive)
same,IC50,[19],> 20 µM (inactive)
COc1ccc(C2CC(c3ccc4ccccc4c3)=NN2C(=O)CNC2CCCCC2)cc1 (stereo not given),EC50,[20],2.76 µM (active)
same,EC50,[21],> 30 µM (not active)
same,AC50,[1],> 100 µM (inactive)
same,AC50,[22],9.16 µM (active)
same,CC50,[23],39 µM (active)
same,IC50,[24],110 µM (active)
O=C(Nc1cc(S(=O)(=O)N2CCOCC2)ccc1N1CCCCC1)c1ccc(Cl)cc1,IC50,[14],50.5 µM (active)
